Key:
Hol1 = biological target: T1, Hol1 (Saccharomyces cerevisiae, UniProt P53389); test: LC-MS quantification of cellular uptake, wild-type versus hol1 deletion cells; type: cell-based; settings: SC 2% ethanol, 30 °C, not an affinity constant
T1 construct: full-length native plasma membrane polyamine transporter in wild-type yeast; hol1 deletion strain as control

CaHOL1 = biological target: T2, CaHOL1 (Candida albicans, UniProt Q5AP74); test: LC-MS quantification of cellular uptake, hol1 deletion cells with or without CaHOL1 plasmid; type: cell-based; settings: 0.003 μg/mL ATI-2307, 2 h, SC -URA 2% ethanol, 30 °C
T2 construct: gene HOL1; full-length CDS PCR-amplified from genomic DNA, expressed from plasmid pBK994 in S. cerevisiae hol1 deletion strain
T2 sequence (Q5AP74 entry or part of it): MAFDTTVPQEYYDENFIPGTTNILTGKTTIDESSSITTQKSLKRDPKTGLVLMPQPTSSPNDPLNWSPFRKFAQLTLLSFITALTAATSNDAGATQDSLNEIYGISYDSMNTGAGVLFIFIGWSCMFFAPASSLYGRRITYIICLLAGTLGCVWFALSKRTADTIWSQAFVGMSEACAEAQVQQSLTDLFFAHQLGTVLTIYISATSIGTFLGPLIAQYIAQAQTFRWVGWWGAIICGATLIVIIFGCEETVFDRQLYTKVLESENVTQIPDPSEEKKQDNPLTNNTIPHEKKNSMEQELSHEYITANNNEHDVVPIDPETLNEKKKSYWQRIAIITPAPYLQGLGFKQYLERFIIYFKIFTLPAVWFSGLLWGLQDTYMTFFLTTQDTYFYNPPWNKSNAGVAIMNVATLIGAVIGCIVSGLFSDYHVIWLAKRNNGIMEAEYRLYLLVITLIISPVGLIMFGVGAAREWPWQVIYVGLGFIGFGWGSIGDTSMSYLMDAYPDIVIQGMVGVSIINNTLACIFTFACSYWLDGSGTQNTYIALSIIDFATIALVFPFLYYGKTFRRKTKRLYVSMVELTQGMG

T1 sequence (P53389 whole entry): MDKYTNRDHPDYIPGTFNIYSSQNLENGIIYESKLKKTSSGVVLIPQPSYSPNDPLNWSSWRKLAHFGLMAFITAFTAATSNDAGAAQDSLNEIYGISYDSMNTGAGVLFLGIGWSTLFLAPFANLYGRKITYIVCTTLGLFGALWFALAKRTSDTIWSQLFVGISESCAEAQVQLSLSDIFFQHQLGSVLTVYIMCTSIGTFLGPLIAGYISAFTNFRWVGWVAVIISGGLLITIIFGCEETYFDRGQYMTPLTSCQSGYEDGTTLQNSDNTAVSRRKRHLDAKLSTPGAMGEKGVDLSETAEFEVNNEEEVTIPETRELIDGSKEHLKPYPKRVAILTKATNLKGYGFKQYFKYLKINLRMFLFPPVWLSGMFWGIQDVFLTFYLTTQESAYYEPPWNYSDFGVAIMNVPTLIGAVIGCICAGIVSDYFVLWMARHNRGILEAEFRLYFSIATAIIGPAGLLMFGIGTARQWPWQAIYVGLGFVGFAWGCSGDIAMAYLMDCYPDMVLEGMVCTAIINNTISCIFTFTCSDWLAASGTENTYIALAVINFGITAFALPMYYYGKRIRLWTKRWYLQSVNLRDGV

SMILES	uptake, μg per gram of WT pellet (Hol1; 0.003 μg/mL ATI-2307, 2 h)	LC-MS quantification of cellular uptake, hol1 deletion cells with or without CaH (CaHOL1)	uptake, μg per gram of WT pellet (Hol1; 1 μg/mL Iminoctadine, 2 h)
N=C(N)c1ccc(OCCCC2CCN(CCCOc3ccc(C(=N)N)cc3)CC2)cc1 [ATI-2307]	0.1 μg/g pellet	heterologous expression of C. albicans HOL1 (CaHOL1) partially restored ATI-2307 uptake	–
N=C(N)NCCCCCCCCNCCCCCCCCNC(=N)N [Iminoctadine]	–	–	52.5 μg/g pellet
